Assay results published in patent publication US20090018134A1, “Compounds - 945” (AstraZeneca AB, priority 2007, published 2009).

Target: T1, mTOR (Homo sapiens, UniProt P42345)
T1 construct: FLAG; made in house
Assay: In Vitro mTOR Kinase Assay (Echo), Test (a)(ii)
Assay type: biochemical
Conditions: table of enzyme assay Test (a)(ii); read-out: Test (a)(ii) IC50
Outline: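 Enzyme: HEK293-expressed, FLAG-purified mTOR C-terminal fragment (aa 1362-2549). Rxn 2 h RT with biotinylated peptide, stopped with EDTA 50 mM/BSA/Tris pH 7.4. Detection: T389 phospho-antibody AlphaScreen, 680 nm excitation. IC50.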

T1 sequence (P42345 1362-2549): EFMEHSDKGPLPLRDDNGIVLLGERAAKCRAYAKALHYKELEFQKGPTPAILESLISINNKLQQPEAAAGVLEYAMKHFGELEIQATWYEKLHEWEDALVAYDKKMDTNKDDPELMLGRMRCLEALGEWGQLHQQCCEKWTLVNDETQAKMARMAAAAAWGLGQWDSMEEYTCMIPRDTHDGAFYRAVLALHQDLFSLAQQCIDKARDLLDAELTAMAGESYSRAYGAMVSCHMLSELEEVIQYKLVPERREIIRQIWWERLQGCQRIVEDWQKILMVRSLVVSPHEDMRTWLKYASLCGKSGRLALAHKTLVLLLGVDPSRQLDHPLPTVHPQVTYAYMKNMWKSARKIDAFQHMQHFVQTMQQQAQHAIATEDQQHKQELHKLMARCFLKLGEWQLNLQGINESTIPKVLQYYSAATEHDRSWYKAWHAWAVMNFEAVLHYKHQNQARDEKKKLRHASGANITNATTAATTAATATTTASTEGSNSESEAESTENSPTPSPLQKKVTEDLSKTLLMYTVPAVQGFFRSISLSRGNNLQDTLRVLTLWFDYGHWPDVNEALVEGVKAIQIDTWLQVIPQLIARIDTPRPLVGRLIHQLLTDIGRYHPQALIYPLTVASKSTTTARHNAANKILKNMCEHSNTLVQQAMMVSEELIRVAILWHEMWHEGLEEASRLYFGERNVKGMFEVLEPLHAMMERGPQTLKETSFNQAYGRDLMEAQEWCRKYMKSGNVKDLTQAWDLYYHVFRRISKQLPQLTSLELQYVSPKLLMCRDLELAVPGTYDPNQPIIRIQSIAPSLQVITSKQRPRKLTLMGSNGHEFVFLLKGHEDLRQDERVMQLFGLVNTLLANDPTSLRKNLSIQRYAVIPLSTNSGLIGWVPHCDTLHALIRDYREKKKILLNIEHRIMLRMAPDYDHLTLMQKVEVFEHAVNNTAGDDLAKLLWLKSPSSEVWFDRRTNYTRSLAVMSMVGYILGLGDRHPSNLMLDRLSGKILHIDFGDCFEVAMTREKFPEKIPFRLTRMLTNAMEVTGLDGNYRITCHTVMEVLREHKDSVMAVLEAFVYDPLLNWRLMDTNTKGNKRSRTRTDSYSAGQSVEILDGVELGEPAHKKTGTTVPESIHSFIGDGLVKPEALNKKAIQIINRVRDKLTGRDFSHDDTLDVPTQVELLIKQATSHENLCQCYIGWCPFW

| Compound | IC50 |
| --- | --- |
| C[C@H]1COCCN1c1cc(C2(S(=O)(=O)c3ccc(F)cc3F)CC2)nc(-c2ccc(NC(=O)NC3CC3)cc2)n1 [Example 57a, 3-cyclopropyl-1-[4-[4-[1-(2,4-difluorophenyl)sulfonylcyclopro-pyl]-6-[(3S)-3-methylmorpholin-4-yl]pyrimidin-2-yl]phenyl]urea] | 10.4 nM |
| C[C@H]1COCCN1c1cc(C2(S(=O)(=O)c3ccc(F)cc3F)CC2)nc(-c2ccc(NC(=O)NCCF)cc2)n1 [Example 57c, 1-[4-[4-[1-(2,4-difluorophenyl)sulfonylcyclopro-pyl]-6-[(3S)-3-methylmorpholin-4-yl]pyrimidin-2-yl]phenyl]-3-(2-fluoroethyl)urea] | 6.95 nM |
| CCNC(=O)Nc1ccc(-c2nc(N3CCOC[C@@H]3C)cc(C3(S(=O)(=O)c4ccc(F)cc4F)CC3)n2)cc1 [Example 57e, 3-[4-[4-[1-(2,4-difluorophenyl)sulfonylcyclopro-pyl]-6-[(3S)-3-methylmorpholin-4-yl]pyrimidin-2-yl]phenyl]-1-ethylurea] | 7.28 nM |
| C[C@H]1COCCN1c1cc(C2(S(=O)(=O)c3ccc(F)cc3F)CC2)nc(-c2ccc(NC(=O)Nc3cnn(C)c3)cc2)n1 [Example 57f, 1-[4-[4-[1-(2,4-difluorophenyl)sulfonylcyclopro-pyl]-6-[(3S)-3-methylmorpholin-4-yl]pyrimidin-2-yl]phenyl]-3-(1-methylpyrazol-4-yl)urea] | 10.6 nM |
| C[C@H]1COCCN1c1cc(C2(S(=O)(=O)c3ccc(F)cc3F)CC2)nc(-c2ccc(NC(=O)NCC3(O)CC3)cc2)n1 [Example 57g, 1-[4-[4-[1-(2,4-difluorophenyl)sulfonylcyclopro-pyl]-6-[(3S)-3-methylmorpholin-4-yl]pyrimidin-2-yl]phenyl]-3-[(1-hydroxycyclopropyl)methyl]urea] | 58.5 nM |
| CNC(=O)Nc1ccc(-c2nc(N3CCOC[C@@H]3C)cc(C3(S(=O)(=O)c4ccccc4F)CC3)n2)cc1 [Example 58, 1-[4-[4-[1-(2-Fluorophenyl)sulfonylcyclopropyl]-6-[(3S)-3-methylmorpholin-4-yl]pyrimidin-2-yl]phenyl]-3-methylurea] | 1.15 nM |
| C[C@H]1COCCN1c1cc(C2(S(=O)(=O)c3ccccc3F)CC2)nc(-c2ccc(NC(=O)NC3CC3)cc2)n1 [Example 58a, 3-cyclopropyl-1-[4-[4-[1-(2-fluorophenyl)sulfonylcyclopropyl]-6-[(3S)-3-methylmorpholin-4-yl]pyrimidin-2-yl]phenyl]urea] | 3.39 nM |
| C[C@H]1COCCN1c1cc(C2(S(=O)(=O)c3ccccc3F)CC2)nc(-c2ccc(NC(=O)NCCO)cc2)n1 [Example 58b, 1-[4-[4-[1-(2-fluorophenyl)sulfonylcyclopropyl]-6-[(3S)-3-methylmorpholin-4-yl]pyrimidin-2-yl]phenyl]-3-(2-hydroxyethyl)urea] | 2 nM |
| C[C@H]1COCCN1c1cc(C2(S(=O)(=O)c3ccccc3F)CC2)nc(-c2ccc(NC(=O)NCCF)cc2)n1 [Example 58c, 3-(2-fluoroethyl)-1-[4-[4-[1-(2-fluorophenyl)sulfonylcyclopropyl]-6-[(3S)-3-methylmorpholin-4-yl]pyrimidin-2-yl]phenyl]urea] | 3.27 nM |
| C[C@H]1COCCN1c1cc(C2(S(=O)(=O)c3ccccc3F)CC2)nc(-c2ccc(NC(=O)NCC(F)F)cc2)n1 [Example 58d, 3-(2,2-difluoroethyl)-1-[4-[4-[1-(2-fluorophenyl)sulfonylcyclopropyl]-6-[(3S)-3-methylmorpholin-4-yl]pyrimidin-2-yl]phenyl]urea] | 2.93 nM |
| CCNC(=O)Nc1ccc(-c2nc(N3CCOC[C@@H]3C)cc(C3(S(=O)(=O)c4ccccc4F)CC3)n2)cc1 [Example 58e, 1-ethyl-3-[4-[4-[1-(2-fluorophenyl)sulfonylcyclopropyl]-6-[(3S)-3-methylmorpholin-4-yl]pyrimidin-2-yl]phenyl]urea] | 2.56 nM |
| C[C@H]1COCCN1c1cc(C2(S(=O)(=O)c3ccccc3F)CC2)nc(-c2ccc(NC(=O)Nc3cnn(C)c3)cc2)n1 [Example 58f, 1-[4-[4-[1-(2-fluorophenyl)sulfonylcyclopropyl]-6-[(3S)-3-methylmorpholin-4-yl]pyrimidin-2-yl]phenyl]-3-(1-methylpyrazol-4-yl)urea] | 2.67 nM |
| C[C@H]1COCCN1c1cc(C2(S(=O)(=O)c3ccccc3F)CC2)nc(-c2ccc(NC(=O)NCC3(O)CC3)cc2)n1 [Example 58g, 1-[4-[4-[1-(2-fluorophenyl)sulfonylcyclopropyl]-6-[(3S)-3-methylmorpholin-4-yl]pyrimidin-2-yl]phenyl]-3-[(1-hydroxycyclopropyl)methyl]urea] | 10.2 nM |
| CNC(=O)Nc1ccc(-c2nc(N3CCOC[C@@H]3C)cc(C3(S(=O)(=O)c4c(C)noc4C)CC3)n2)cc1 [Example 59] | 8.82 nM |
| Cc1noc(C)c1S(=O)(=O)C1(c2cc(N3CCOC[C@@H]3C)nc(-c3ccc(NC(=O)NC4CC4)cc3)n2)CC1 [Example 59a, 3-cyclopropyl-1-[4-[4-[1-[(3,5-dimethyl-1,2-oxazol-4-yl)sulfonyl]cyclopropyl]-6-[(3S)-3-methylmorpholin-4-yl]pyrimidin-2-yl]phenyl]urea] | 22.2 nM |
| Cc1noc(C)c1S(=O)(=O)C1(c2cc(N3CCOC[C@@H]3C)nc(-c3ccc(NC(=O)NCCO)cc3)n2)CC1 [Example 59b, 1-[4-[4-[1-[(3,5-dimethyl-1,2-oxazol-4-yl)sulfonyl]cyclopropyl]-6-[(3S)-3-methylmorpholin-4-yl]pyrimidin-2-yl]phenyl]-3-(2-hydroxyethyl)urea] | 9.93 nM |
| Cc1noc(C)c1S(=O)(=O)C1(c2cc(N3CCOC[C@@H]3C)nc(-c3ccc(NC(=O)NCCF)cc3)n2)CC1 [Example 59c, 1-[4-[4-[1-[(3,5-dimethyl-1,2-oxazol-4-yl)sulfonyl]cyclopropyl]-6-[(3S)-3-methylmorpholin-4-yl]pyrimidin-2-yl]phenyl]-3-(2-fluoroethyl)urea] | 22.6 nM |
| Cc1noc(C)c1S(=O)(=O)C1(c2cc(N3CCOC[C@@H]3C)nc(-c3ccc(NC(=O)NCC(F)F)cc3)n2)CC1 [Example 59d, 3-(2,2-difluoroethyl)-1-[4-[4-[1-[(3,5-dimethyl-1,2-oxazol-4-yl)sulfonyl]cyclopropyl]-6-[(3S)-3-methylmorpholin-4-yl]pyrimidin-2-yl]phenyl]urea] | 32 nM |
| Cc1noc(C)c1S(=O)(=O)C1(c2cc(N3CCOC[C@@H]3C)nc(-c3ccc(NC(=O)NCC4(O)CC4)cc3)n2)CC1 [Example 59e, 1-[4-[4-[1-[(3,5-dimethyl-1,2-oxazol-4-yl)sulfonyl]cyclopropyl]-6-[(3S)-3-methylmorpholin-4-yl]pyrimidin-2-yl]phenyl]-3-[(1-hydroxycyclopropyl)methyl]urea] | 293 nM |
| CCNC(=O)Nc1ccc(-c2nc(N3CCOC[C@@H]3C)cc(C3(S(=O)(=O)c4c(C)noc4C)CC3)n2)cc1 [Example 59f, 3-[4-[4-[1-[(3,5-dimethyl-1,2-oxazol-4-yl)sulfonyl]cyclopropyl]-6-[(3S)-3-methylmorpholin-4-yl]pyrimidin-2-yl]phenyl]-1-ethylurea] | 49.1 nM |
| Cc1noc(C)c1S(=O)(=O)C1(c2cc(N3CCOC[C@@H]3C)nc(-c3ccc(NC(=O)Nc4cnn(C)c4)cc3)n2)CC1 [Example 59g, 1-[4-[4-[1-[(3,5-dimethyl-1,2-oxazol-4-yl)sulfonyl]cyclopropyl]-6-[(3S)-3-methylmorpholin-4-yl]pyrimidin-2-yl]phenyl]-3-(1-methylpyrazol-4-yl)urea] | 101 nM |
| CNC(=O)Nc1ccc(-c2nc(N3CCOC[C@@H]3C)cc(C3(S(=O)(=O)c4cc(F)ccc4F)CC3)n2)cc1 [Example 60, 1-[4-[4-[1-(2,5-Difluorophenyl)sulfonylcyclopropyl]-6-[(3S)-3-methylmorpholin-4-yl]pyrimidin-2-yl]phenyl]-3-methylurea] | 12 nM |
| C[C@H]1COCCN1c1cc(C2(S(=O)(=O)c3cc(F)ccc3F)CC2)nc(-c2ccc(NC(=O)NC3CC3)cc2)n1 [Example 60a, 3-cyclopropyl-1-[4-[4-[1-(2,5-difluorophenyl)sulfonylcyclopropyl]-6-[(3S)-3-methylmorpholin-4-yl]pyrimidin-2-yl]phenyl]urea] | 19.1 nM |
| C[C@H]1COCCN1c1cc(C2(S(=O)(=O)c3cc(F)ccc3F)CC2)nc(-c2ccc(NC(=O)NCCO)cc2)n1 [Example 60b, 1-[4-[4-[1-(2,5-difluorophenyl)sulfonylcyclopropyl]-6-[(3S)-3-methylmorpholin-4-yl]pyrimidin-2-yl]phenyl]-3-(2-hydroxyethyl)urea] | 8.62 nM |
| C[C@H]1COCCN1c1cc(C2(S(=O)(=O)c3cc(F)ccc3F)CC2)nc(-c2ccc(NC(=O)NCCF)cc2)n1 [Example 60c, 1-[4-[4-[1-(2,5-difluorophenyl)sulfonylcyclopropyl]-6-[(3S)-3-methylmorpholin-4-yl]pyrimidin-2-yl]phenyl]-3-(2-fluoroethyl)urea] | 6.95 nM |
| C[C@H]1COCCN1c1cc(C2(S(=O)(=O)c3cc(F)ccc3F)CC2)nc(-c2ccc(NC(=O)NCC(F)F)cc2)n1 [Example 60d, 3-(2,2-difluoroethyl)-1-[4-[4-[1-(2,5-difluorophenyl)sulfonylcyclopropyl]-6-[(3S)-3-methylmorpholin-4-yl]pyrimidin-2-yl]phenyl]urea] | 18.3 nM |
| CCNC(=O)Nc1ccc(-c2nc(N3CCOC[C@@H]3C)cc(C3(S(=O)(=O)c4cc(F)ccc4F)CC3)n2)cc1 [Example 60e, 3-[4-[4-[1-(2,5-difluorophenyl)sulfonylcyclopropyl]-6-[(3S)-3-methylmorpholin-4-yl]pyrimidin-2-yl]phenyl]-1-ethylurea] | 11.6 nM |
| C[C@H]1COCCN1c1cc(C2(S(=O)(=O)c3cc(F)ccc3F)CC2)nc(-c2ccc(NC(=O)Nc3cnn(C)c3)cc2)n1 [Example 60f, 1-[4-[4-[1-(2,5-difluorophenyl)sulfonylcyclopropyl]-6-[(3S)-3-methylmorpholin-4-yl]pyrimidin-2-yl]phenyl]-3-(1-methylpyrazol-4-yl)urea] | 17.3 nM |
